In PMC9503778, “Targeted Isolation of Antibiotic Brominated Alkaloids from the Marine Sponge Pseudoceratina durissima Using Virtual Screening and Molecular Networking” (Marine Drugs, 2022):
Where “and” joins values, the source holds several entries; their conditions need not be identical. Identical values can stand only once. Like-named read-outs stand apart in the source and are kept apart here.

Legend:
[1] = system: C. albicans (yeast) ATCC 90028; assay: Antimicrobial growth inhibition (CO-ADD), C. albicans; assay type: cell-based, Candida albicans; conditions: for MIC / inhibition at 32 µg/mL: Candida albicans; for % inhibition C. albicans: 32 µg/mL, duplicate (n = 2) values; for inhibition at 32 µg/mL: ATCC90028, read-out: % inhibition C. albicans, 32 µg/mL, duplicate (n = 2) values
Description: (§1) Compounds 1−3 and 5−12 were assayed against a selection of medically important pathogenic microorganisms (MRSA, E. coli, K. pneumoniae, A. baumanii, P. aeruginosa, C. albicans, C. neoformans), Table 4. […] To the best of our knowledge this compound had not been tested against any drug resistant strain of Gram-positive bacterium until this study.
(§2) The antimicrobial activity testing was performed by the Community for Antimicrobial Drug Discovery (CO-ADD). Compounds were assayed against a range of both Gram negative and Gram positive bacteria (see Supplementary Materials S3) including methicillin-resistant Staphylococcus aureus (MRSA) (G+), Escherichia coli (G-), Klebsiella pneumoniae (G-), Acinetobacter baumannii (G-), Pseudomonas aeruginosa (G-) together with two species of fungus (Candida albicans and Cryptococcus neoformans).
(§3) S3. Antimicrobial activity testing methodology
(§4) The compounds submitted to CO-ADD were evaluated in duplicate (n = 2) against seven microorganisms (five bacteria and two fungi) at a concentration of 32 µg/mL in a 384-well, non-binding surface plate (NBS) for each bacterial/fungal strain, keeping the final DMSO concentration to a maximum of 1% DMSO. All bacteria were cultured in cation-adjusted […]
(§5) Fungal strains were cultured for 3 days on Yeast Extract-Peptone Dextrose (YPD) agar at 30 °C. A yeast suspension of 1 x 10^6 to 5 x 10^6 CFU/mL (as determined by OD530) was prepared from five colonies. The suspension was subsequently diluted and added to each well of the compound-containing plates giving a final cell density of fungi suspension of 2.5 x 10^3 CFU/mL and a total volume of 50 µL. All plates were covered and incubated at 35 °C for 24 h without shaking. […]
(§6) 2 h. The absorbance was measured using a Biotek Synergy HTX plate reader. The percentage of growth inhibition was calculated for each well, using negative control (medium only) and positive control (bacteria without inhibitors) on the same plate as the references. The significance of inhibition values was determined by modified Z-scores, calculated using the median and MAD of the samples (no controls) on the same plate. Samples with inhibition value above 80% and Z-score above 2.5 for either replicate (n = 2 on different plates) were classed as actives.
(§7) Colistin and vancomycin were used as positive bacterial inhibitor standards for Gram-negative and Gram-positive bac-teria, respectively. Fluconazole was used as a positive fungal inhibitor standard for C. albicans and C. neoformans. The antibiotics were provided in four concentrations, with two above and two below its MIC value, and plated into the first eight wells of column 23 of the 384-well NBS plates. The quality control (QC) of the assays was determined by the antimicrobial controls and the Z’-factor (using positive and negative controls). Each plate was deemed to fulfil the qual- […]
(§8) full growth inhibition at their highest concentration, and no growth inhibition at their lowest concentration. The seven […]
(§9) test microorganisms were Staphylococcus aureus MRSA (ATCC 43300), Escherichia coli (ATCC 25922), Klebsiella pneu-moniae (ATCC 700603), Acinetobacter baumanii (ATCC19606), Pseudomonas aeruginosa (ATCC 27853), Candida albicans (ATCC 90028) and Cryptococcus neoformans var. grubii (H99; ATCC 208821).
(§10) S4. Anthelmintic activity testing methodology
(§11) Dose-response evaluations were carried out to estimate the half-maximal inhibitory concentrations (IC50 values) for compounds against Haemonchus contortus (Haecon-5 strain) exsheathed third-stage larvae (xL3s). H. contortus were maintained in experimental sheep and procured in accordance with the institutional animal ethics guidelines and the regulations of Australia (permit no. 1714374; University of Melbourne). Immediately prior to use, third-stage larvae (L3s) were exsheathed and sterilised by incubation in 0.15% (v/v) bleach at 38 °C for 20 min, followed by washes in sterile saline at room temperature (22-24 °C). […]

[2] = system: A. baumannii (G-) strain ATCC 19606; assay: Antimicrobial growth inhibition (CO-ADD), A. baumannii; assay type: cell-based, Acinetobacter baumannii; conditions: for % inhibition A. baumannii: 32 µg/mL; for inhibition at 32 µg/mL / MIC: Acinetobacter baumannii
Description: as §1, §2, §3
(§12) The compounds submitted to CO-ADD were evaluated in duplicate (n = 2) against seven microorganisms (five bacteria and two fungi) at a concentration of 32 µg/mL in a 384-well, non-binding surface plate (NBS) for each bacterial/fungal strain, keeping the final DMSO concentration to a maximum of 1% DMSO. All bacteria were cultured in cation-adjusted Mueller-Hinton broth (CAMHB) at 37 °C overnight. A sample of each culture was then diluted 40-fold in fresh broth and incubated at 37 °C for 1.5-3 h. The resultant mid-log phase cultures were diluted (CFU/mL measured by OD600), then added to each well of the compound containing plates, giving a cell density of 5x10^5 CFU/mL and a total volume of 50 µL. All the plates were covered and incubated at 37 °C for 18 h without shaking. […] Inhibition of bacterial growth was determined measuring absorbance at 600 nm (OD600) using a Tecan M1000 Pro mon-ochromator plate reader. […]
as §6, §7, §8, §9, §10
as §11, with “in” for “in sterile saline at room temperature (22-24 °C).”

human red blood cells = assay: Haemolysis assay (CO-ADD); assay type: cell-based
[3] = system: MRSA (G+) strain ATCC 43300; assay: Antimicrobial growth inhibition (CO-ADD), MRSA; assay type: cell-based, Staphylococcus aureus; conditions: for MIC / inhibition at 32 µg/mL: Staphylococcus aureus; for % inhibition MRSA: 32 µg/mL, duplicate (n = 2) values
Description: as §1, §2, §3, §12, §6, §7, §8, §9, §10
as §11, with “in” for “in sterile saline at room temperature (22-24 °C).”

[4] = system: E. Coli (G-) strain ATCC 25922; assay: Antimicrobial growth inhibition (CO-ADD), E. coli; assay type: cell-based, Escherichia coli; conditions: for % inhibition E. coli: 32 µg/mL; for MIC / inhibition at 32 µg/mL: Escherichia coli
Description: as §1, §2, §3, §12, §6, §7, §8, §9, §10
as §11, with “in” for “in sterile saline at room temperature (22-24 °C).”

[5] = system: C. neoformans var. grubii strain ATCC 208821; assay: Antimicrobial growth inhibition (CO-ADD), C. neoformans; assay type: cell-based, Cryptococcus neoformans; conditions: for % inhibition C. neoformans: 32 µg/mL; for inhibition at 32 µg/mL: Cryptococcus neoformans
Description: as §1, §2, §3, §4, §5
as §6, with “Growth inhibition of C. albicans was determined measuring absorbance at 530 nm (OD530), while the growth inhibition of C. neoformans was determined measuring the difference in absorbance between 600 and 570 nm (OD600-570), after the addition of resazurin (0.001% final concentration) and incubation at 35 °C for an additional 2 h.” for “2 h.”
as §7, §8, §9, §10
Dose-response evaluations were carried out to estimate the half-maximal inhibitory concentrations (IC50 values) for compounds against Haemonchus contortus (Haecon-5 strain) exsheathed third-stage larvae (xL3s). H. contortus were maintained in experimental sheep and procured in accordance with the institutional animal ethics guidelines and the […]

[6] = ATCC90028, ATCC 90028, read-out: MIC C. albicans
[7] = ATCC19606, ATCC 19606, read-out: MIC A. baumannii
[8] = ATCC 43300, MIC = concentration at which growth inhibited by ≥80%, range 0.25−32 µg/mL, read-out: MIC MRSA
[9] = ATCC25922, ATCC 25922, MIC = concentration at which growth inhibited by ≥80%, read-out: MIC E. coli
[10] = read-out: % inhibition MRSA, 32 µg/mL, duplicate (n = 2) values
[11] = ATCC25922, read-out: % inhibition E. coli, 32 µg/mL, duplicate (n = 2) values
[12] = ATCC208821, read-out: % inhibition C. neoformans, 32 µg/mL, duplicate (n = 2) values
[13] = ATCC19606, read-out: % inhibition A. baumannii, 32 µg/mL, duplicate (n = 2) values

| SMILES | MIC [1, 6] | % inhibition A. baumannii ([2]; duplicate (n = 2) values) | MIC [2, 7] | Haemolysis (HC10) (human red blood cells) | MIC [3, 8] | % inhibition E. coli ([4]; duplicate (n = 2) values) | MIC [4, 9] | % inhibition C. neoformans ([5]; duplicate (n = 2) values) | % inhibition MRSA [3] | inhibition at 32 µg/mL [3, 10] | inhibition at 32 µg/mL [4, 11] | % inhibition C. albicans [1] | inhibition at 32 µg/mL [1] | further results |
| --- | --- | --- | --- | --- | --- | --- | --- | --- | --- | --- | --- | --- | --- | --- |
| NC(=O)Cc1c(O)cc(Br)c(O)c1Br [Compound 9, subereaphenol A] | > 32 µg/mL | 18.5% | > 32 µg/mL | 1.032 µg/mL | > 32 µg/mL | 1.5% and 9.6% | > 32 µg/mL | 11.9% | – | – | – | – | – | inhibition at 32 µg/mL ([2]; ATCC19606, 32 µg/mL, duplicate (n = 2) values, read-out: % inhibition A. baumannii): 10.8%; inhibition at 32 µg/mL ([5]; ATCC208821, 32 µg/mL, duplicate (n = 2) values, read-out: % inhibition C. neoformans): 11.2% |
| COC1=C(Br)[C@H](O)[C@@]2(C=C1Br)CC(C(=O)NCCCOc1c(Br)cc(CCN)cc1Br)=NO2 [Compound 11, araplysillin I] | > 32 µg/mL | 3.4% and 7.3% | > 32 µg/mL | >32 µg/mL | > 32 µg/mL | 8.5% | > 32 µg/mL | 7.8% | 5.7% | 11.3% | 15.9% | – | – | inhibition at 32 µg/mL [5, 12]: 7.6% |
| COC1=C(Br)[C@H](O)[C@@]2(C=C1Br)CC(C(=O)NCCCCCNC(=O)C1=NO[C@]3(C=C(Br)C(OC)=C(Br)[C@@H]3O)C1)=NO2 [Compound 3, homoaerothionin] | > 32 µg/mL | 9.8% | > 32 µg/mL | >32 µg/mL | > 32 µg/mL | −2.9% and −3.1% | > 32 µg/mL | 16.1% | – | – | – | 6.3% | 3.4% | inhibition at 32 µg/mL [2, 13]: 13.8%; inhibition at 32 µg/mL [5, 12]: 10.6% |
| COC1=C(Br)[C@H](O)[C@@]2(C=C1Br)CC(C(=O)NCCCOc1c(Br)cc(CCNC(=O)C3=NO[C@]4(C=C(Br)C(OC)=C(Br)[C@@H]4O)C3)cc1Br)=NO2 [Compound 5, 11,17-deoxyfistularin-3] | > 32 µg/mL | 8.5% | > 32 µg/mL | >32 µg/mL | > 32 µg/mL | 9.5% | > 32 µg/mL | 10.4% and 3.8% | 19.8% | 10% | 8.1% | 3.3% | 2.5% | inhibition at 32 µg/mL [2, 13]: 10.2% |
| COC1=C(Br)[C@H](O)[C@@]2(C=C1Br)CC(C(=O)NCCCCNC(=O)C1=NO[C@]3(C=C(Br)C(OC)=C(Br)[C@@H]3O)C1)=NO2 [Compound 2, aerothionin] | > 32 µg/mL | – | > 32 µg/mL | >32 µg/mL | > 32 µg/mL | 0.9% and 2.3% | > 32 µg/mL | – | −1.5% and 6.1% | – | – | 0.5% and 4.2% | – | – |
| COC1=C(Br)[C@H](O)[C@](O)(CC#N)C=C1Br [Compound 1, (+)-aeroplysinin-1] | – | – | – | >32 µg/mL | – | 95.2% | – | −6.6% and 0.0% | 96.7% | 95.9% | 93.7% | 9.8% | 9.5% | MIC ([1]; ATCC90028, read-out: MIC C. albicans): > 32 µg/mL; MIC ([2]; ATCC19606, read-out: MIC A. baumannii): > 32 µg/mL; MIC MRSA ([3]; ATCC 43300, MIC = concentration at which growth inhibited by ≥80%, range 0.25−32 µg/mL): 32 µg/mL; MIC ([3]; read-out: MIC MRSA, ATCC 43300, MIC = concentration at which growth inhibited by ≥80%, range 0.25−32 µg/mL): < 32 µg/mL; inhibition at 32 µg/mL ([3]; read-out: mean value of % inhibition against MRSA, 32 µg/mL, mean of duplicates): 96.3%; MIC ([4]; ATCC25922, read-out: MIC E. coli): 32 µg/mL; inhibition at 32 µg/mL ([4]; ATCC25922, read-out: mean value of % inhibition against E. coli, 32 µg/mL, mean of duplicates): 94.5% |
| COC1(OC)C(Br)=CC(O)(CC(N)=O)C=C1Br [Compound 6, 2-(3,5-dibromo-1-hydroxy-4,4-dimethoxycyclohexa-2,5-dien-1-yl)acetamide] | > 32 µg/mL | 2.3% and 9.7% | > 32 µg/mL | >32 µg/mL | > 32 µg/mL | 15.6% | > 32 µg/mL | 11.1% and 2.0% | 3.3% and 7.0% | – | – | 0.6% and 4.6% | – | inhibition at 32 µg/mL ([4]; ATCC25922, 32 µg/mL, duplicate (n = 2) values, read-out: % inhibition E. coli): 14.6% |
